This is an account of results in US20230218519A1, “FLUID GEL COMPOSITIONS” (The University of Birmingham, priority 2020, published 2023).

Like-named read-outs stand apart in the source and are kept apart here.

Data set [1] is described as follows: Release assay from PEG-DA fluid gel (trans-well, UV/Vis). The data set is classed as physicochemical. Particulars: 3% v/v PEG-DA fluid gel (Example 5.3, 500 rpm), into PBS at 37° C., 5 hrs. Here is the method: • Active amounts: […] • Standard concentrations of active in PBS were prepared. • Standards were pipetted into a quartz cuvette (1 mm pathlength). • UV/Vis spectroscopy was used to measure absorbance between 200 and 700 nm wavelength. • Curves were plotted and used to determine standard curves which were used to determine concentrations. • 0.5 ml PBS was added to the well of a 24 well plate. • The PBS was incubated at 37° C. to equilibrate. • 0.1 ml of the fluid gel containing active was placed in a trans-well insert. • The trans-well insert was placed into a well containing PBS. • After a given time period the trans-well insert was removed and placed in a fresh well of PBS. • The release media was then removed and analysed using […] spectroscopy. Concentrations were derived from the standard curves and cumulative release plotted as a function of time.

Data set [2] relates to primary ovine chondrocytes. The data set is described as follows: Metabolic activity assay (PrestoBlue). The data set is classed as cell-based. Here is the method:
All cell work was undertaken on primary ovine chondrocytes. Cells were first expanded, then seeded into wells 24 hrs prior to the application of the fluid gels. Once treatments were added, the cells were cultured for a further 3 days before testing for both metabolic activity and cell viability. In the presence of functionalised particles, suspension wells were used to promote adhesion to the gelled particles, away from the plastic. Metabolic activity assay was undertaken using a PrestoBlue™ assay kit (Invitrogen). In brief, cells were washed with Dulbecco's PBS, and 1 mL of PrestoBlue™ supplemented medium (10%) was added to each well and incubated for 4 hrs. 50 μL of supernatant from each well was transferred to one well of a 96 well plate and fluorescence was measured using a Tecan Spark (Tecan Group Ltd, UK) plate reader with excitation/emission wavelengths set at 550/620 nm.

For the compound `CC(C)Cc1ccc(C(C)C(=O)O)cc1` (stereo not shown) [Ibuprofen, ibuprofen], the “release of active agent from fluid gel” value in data set [1] is reported as “able to release”.
On to `CC(C)(O)C(=O)c1ccc(OCCO)cc1` [Irgacure-2959, 1-[4-(2-Hydroxyethoxy)-phenyl]-2-hydroxy-2-methyl-1-propane-1-one], for which, in data set [2], the “metabolic activity, each constituent part of the PEG-DA formulation” value is “slight reduction in cell metabolism, although not statistical”.
As for `CC(C)(O)C(=O)c1ccccc1` [Omnirad-1173, 2-hydroxy-2-methyl-1-phenylpropanone], the “metabolic activity, each constituent part of the PEG-DA formulation” value in data set [2] (3 days culture, PEG-DA not cured, 3.5% & 5%) is “slight reduction in cell metabolism, although not statistical”.
For dextran, the “release of active agent from fluid gel” value in data set [1] is reported as “able to release”.
